Reference: patent publication US6887879B2, “Pharmaceutical combination of antiviral agents” (priority 1999, dated 2005)
Read-outs that look alike come from different tables or passages of the source.

Tests used:
[1] = Cytotoxicity, [3H]-thymidine uptake, DU145; format: cell-based; settings: human, DU145 cells
Protocol: (§1) The cellular toxicity of the BCH compounds were assessed on various cells using [^3H]-thymidine uptake. The various cells, including Molt-4, HT1080, DU-145, HepG 2 and HSF, were plated at a concentration of 1-2×10^3 cells per well (96 well plates). However, PHA-stimulated PBMCs were cultured at a concentration of 4×10^4. After a 24 hr incubation period, 10-fold serial diluted compounds (10^−4 M to 10^−10 M) were added to the culture medium and the cells were further incubated for 72 hrs. [^3H]-thymidine was added during the final 18 hr incubation period. After incubation with the [^3H]-thymidine, the cells were washed once with PBS, treated with trypsin it the cells were adherent, and then resuspended in water (hypotonic lysing of cells) The cellular extract was applied directly to a Tomtec Harvester 96. Using this instrument the extracted DNA is adsorbed onto filters, washed and the incorporated [^3H]-thymidine is then counted.

[2] = Cytotoxicity, [3H]-thymidine uptake, HSF; format: cell-based; settings: human, human skin fibroblasts (HSF)
Protocol: as §1

[3] = Cytotoxicity, [3H]-thymidine uptake, Molt-4; format: cell-based; settings: human, Molt-4 cells
Protocol: as §1

[4] = Cytotoxicity, WST-1 cell viability assay; format: cell-based, human; settings: human, CBMCs, MT-2, H9, Jurkat and U937 cells; WST-1 cell viability assay
Protocol: The cellular toxicity of the compounds was also tested by WST-1 staining through assessing proliferation of MT-2, H9, Jurkat, U937, and CBMCs. The established cell lines were cultured in RPMI medium in 96-well plates at a density of 5×10^4 cells/well while CBMCs were plated at a concentration of 0.5×10^6/well. A 10-fold serial diluted (10^−4−10^−7 M) compound was added at day zero. At day 4, the cells were passaged by changing half medium containing appropriately diluted compound. The cell activities were assessed at day 7 using the WST-1 reagent (Boehringer Mannheim) following the protocol provided by the supplier.

[5] = system: HIV-1IIIB; test: Anti-HIV-1 antiviral assay, laboratory strain HIV-1IIIB, RT activity in culture supernatants
Protocol: Most experiments were performed with a laboratory strain HIV-1III. […] The cells were incubated with virus using the indicated multiplicity of infection (MOI) for 2-3 hrs. The MOI used for each experiment was dependent upon the cell line and virus strain used, and was generally in the range of 0.005 to 0.5. For example, in assays performed using the established cell line MT-2, HIV-1IIIB at an MOI of 0.005 was used to infect cells. The unbound virus was then removed by washing the cells, followed by plating the cells into a 96-well plate. The infected cells were cultured in the presence of a serial concentrations of the test compound for 5-7 days. The anti-HIV-1 efficacy was determined by testing for HIV-1 RT activity in the cell culture supernatants. All assays were performed in duplicate and at least two independent experiments were performed. […] The susceptibilities of the HIV-1 variants to antiretroviral agents are expressed as the mean of the EC50 determinations.

[6] = Cytotoxicity, [3H]-thymidine uptake, HT-1080; format: cell-based; settings: human, HT-1080 cells
Protocol: as §1

[7] = Cytotoxicity, [3H]-thymidine uptake, HepG2; format: cell-based; settings: human, HepG2 cells
Protocol: as §1

[8] = molecular target: T1, wt HIV-1 RT (Human immunodeficiency virus type 1 group M subtype B, UniProt P04585); test: Chain elongation/termination assay; format: biochemical; settings: for chain termination / full-length products, in words: HIV-PBS template, dPR primer, raising inhibitor concentration
T1 construct: Wild type (wt) version of recombinant HIV-1 RT were expressed with a histidine tag; histidine tag; made in house; host or cells: E. coli
Protocol: RT inhibition assay. The inhibition of HIV-1 RT RNA dependent DNA polymerase activity of DXG-TP was assessed under steady-state enzymatic kinetics by employing homopolymeric RNA templates/DNA primers (T/P) and a heteropolymeric RNA template/DNA primer. The heteropolymeric RNA template contains the HIV-1 primer binding sequence, US and R regions (designated as HIV-PBS). […] The oligodeoxynucleotide primer (dPR) is an 18-mer (5′-[…]-3′) which is complementary to the HIV-1 primer binding sequence. […] Inhibition of dNTP incorporation/chain termination. […] HIV-PBS RNA template and dPR DNA primer were used in this system. The RT reactions were performed in […] containing 50 mM Tris (pH 7.8), 75 mM KCl, 10 mM MgCl2, 100 μM of dNTPs. […] The reactions were allowed to proceed at 37° C. for 60 min in the presence or absence of inhibitors. The transcribed DNA products were separated on a 5% denaturing polyacrylamide gel and visualized by exposure to X-ray film.
The chain elongation/termination assay provides a method to directly visualize the products of incorporation of dideoxynucleotide monophosphates into nascent DNA by monitoring the reaction products using polyacrylamide gel electrophoresis. The experiment was performed using wt HIV-1 RT, and HIV-PBS heteropolymeric template, and [^32p]ATP labeled dPR primer in the presence of various concentrations of RT inhibitor. […] As comparison, NNRTI nevirapine was also used in the assay.

[9] = molecular target: T1, wt HIV-1 RT; test: RT inhibition assay, RNA dependent DNA polymerase activity; format: biochemical
Protocol: Wild type (wt) version of recombinant HIV-1 RT were expressed with a histidine tag in an E. coli protein expression system.
RT inhibition assay. The inhibition of HIV-1 RT RNA dependent DNA polymerase activity of DXG-TP was assessed under steady-state enzymatic kinetics by employing homopolymeric RNA templates/DNA primers (T/P) and a heteropolymeric RNA template/DNA primer. The heteropolymeric RNA template contains the HIV-1 primer binding sequence, US and R regions (designated as HIV-PBS). […] The oligodeoxynucleotide primer (dPR) is an 18-mer (5′-[…]-3′) which is complementary to the HIV-1 primer binding sequence. […] The reverse transcription reaction contained final concentrations of 50 mM Tris-HCl, pH 7.8, 60 mM KCl, 10 mM MgCl2, 0.1 U/ml homopolymeric T/P and 5 μM [^3H]dNTP substrate or 25 nM HIV-PBS/dPR and 5 μM each of dTTP, dCTP, dGTP and [-^32P]dATP in […]. […] Inhibition of dNTP incorporation/chain termination. The effect of DXG-TP on RT activity was also assessed using the chain termination/dNTP incorporation assay in which inhibition of nascent DNA synthesis (chain termination) was monitored based upon cDNA synthesis as previously described (Arts et al., 1993; J. Biol. Hem. 269:14672-14680 and Gu et al., 1995, Proc. Natl. Acad. Sci. USA 92:2760-2764). HIV-PBS RNA template and dPR DNA primer were used in this system. The RT reactions were performed in […] containing 50 mM Tris (pH 7.8), 75 mM KCl, 10 mM MgCl2, 100 μM of dNTPs. The HIV-PBS RNA template (50 nM) and [−^32P]-ATP labeled oligodeoxynucleotide primer (125 nM) were included in the reaction. The mixture was first denatured at 85° C. for 2 minutes, then cooled to 55° C. for 8 min, and finally cooled to 37° C. at which time recombinant HIV RT was added (42.5 nM). The reactions were allowed to proceed at 37° C. for 60 min in the presence or absence of inhibitors. The transcribed DNA products were separated on a 5% denaturing polyacrylamide gel and visualized by exposure to X-ray film.

[10] = Cytotoxicity, [3H]-thymidine uptake, PBMC; format: cell-based; settings: human, PHA-stimulated PBMCs
Protocol: as §1

[11] = template/primer HIV-PBS/dPR, substrate dNTPs, each 5 μM
[12] = template/primer poly(rC).oligo(dG)12-15, substrate dGTP

Compound	CC50 at 72 h [1] [nM]	CC50 at 72 h [3] [nM]	CC50 at 7 days [4] [nM]	CC50 at 72 h [6] [nM]	CC50 at 72 h [7] [nM]	chain termination / full-length products, in words [8]	IC50 [9, 11] [nM]	IC50 [9, 12] [nM]	other results
Cc1cn([C@H]2C[C@H](N=[N+]=[N-])[C@@H](CO)O2)c(=O)[nH]c1=O [AZT, zidovudine, reference compound]	> 10000	3000	74000	5000	3000	–	–	–	CC50 at 72 h [2]: > 10000 nM; EC50 ([5]; Human immunodeficiency virus 1, Jurkat, read-out: EC50, mean values ± SD): 11 ± 7 nM; EC50 ([5]; Human immunodeficiency virus 1, MT2, read-out: EC50, mean values ± SD): 7.6 ± 4.4 nM; EC50 ([5]; Human immunodeficiency virus 1, MT4, read-out: EC50, mean values ± SD): 8 ± 5 nM; EC50 ([5]; Human immunodeficiency virus 1, U-937): 25 nM; EC50 ([5]; Human immunodeficiency virus 1, read-out: EC50, mean values ± SD): 5.1 ± 3 nM
Cc1cn([C@H]2C[C@H](N=[N+]=[N-])[C@@H](COP(=O)(O)OP(=O)(O)OP(=O)(O)O)O2)c(=O)[nH]c1=O [AZT-TP]	–	–	–	–	–	caused increasing chain termination but decreasing full-length products	–	–	–
Nc1nc2c(ncn2C2COC(COP(=O)(O)OP(=O)(O)OP(=O)(O)O)O2)c(=O)[nH]1 (centres unmarked) [DXG-TP, DXG 5′-triphosphate]	–	–	–	–	–	caused increasing chain termination but decreasing full-length products	62 ± 7	12	mode of RT inhibition, in words [9]: competition with natural substrate; IC50 ([9]; template/primer poly(rA).oligo(dT)12-18, substrate dTTP): > 10000 nM; inhibitory effect on RT activity by band intensity, compared, in words ([8]; cell-free assay): the same as ddGTP and AZT-TP at the same concentrations, but higher than lamivudine-TP
Nc1ccn([C@H]2CC[C@@H](CO)O2)c(=O)n1 [ddC, 2′,3′-dideoxycytidine]	5000	2000	29000	2000	7000	–	–	–	CC50 at 72 h [10]: 32500 nM
Nc1nc2c(ncn2[C@H]2CC[C@@H](COP(=O)(O)OP(=O)(O)OP(=O)(O)O)O2)c(=O)[nH]1 [ddGTP, dideoxyguanosine triphosphate, reference compound]	–	–	–	–	–	–	74 ± 8	11 ± 0.7	–
